The values that follow are results of earlier work, collected in patent US20240408163A1, “CAPILLARY NUTRITIONAL COMPLEX” (NATURAL FOLIC, S.L., priority 2023, published 2024).

On to `CC1=C(/C=C/C(C)=C/C=C/C(C)=C/C=C/C=C(C)/C=C/C=C(C)/C=C/C2=C(C)C(=O)[C@@H](O)CC2(C)C)C(C)(C)C[C@H](O)C1=O` [Astaxanthin], for which the “antioxidant power relative to coenzyme Q10” value (times more powerful than coenzyme Q10) is listed as 800 times. Also, the “antioxidant power relative to vitamin C” value (times more powerful than vitamin C) is given as 6000 times.
